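Abbreviation: GI50, concentration required for 50% inhibition of growth. TGI denotes the concentration required for complete inhibition of growth.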
Tests used:
Assay in all cases: inhibition of tumour cell growth, NCI panel, 384-well format
EKVX NSCLC = test system: EKVX NSCLC
OVCAR-8 ovarian = test system: OVCAR-8 ovarian
IGROV1 ovarian = test system: IGROV1 ovarian
DU-145 prostate = test system: DU-145 prostate
NCI-H522 lung = test system: NCI-H522 lung
CAKI-1 renal = test system: CAKI-1 renal
M14 melanoma = test system: M14 melanoma
HT29 colon = test system: HT29 colon
HL-60(TB) leukemia = test system: HL-60(TB) leukemia
HCT-15 colon = test system: HCT-15 colon
SK-MEL-28 melanoma = test system: SK-MEL-28 melanoma
SNB-75 CNS = test system: SNB-75 CNS
786-0 renal = test system: 786-0 renal
NCI-H226 lung = test system: NCI-H226 lung
BT-549 breast = test system: BT-549 breast
MCF7 breast = test system: MCF7 breast
HOP-62 NSCLC = test system: HOP-62 NSCLC
HS 578T breast = test system: HS 578T breast
OVCAR-4 ovarian = test system: OVCAR-4 ovarian
MDA-MB-435 melanoma = test system: MDA-MB-435 melanoma
MDA-MB-468 breast = test system: MDA-MB-468 breast
HOP-92 NSCLC = test system: HOP-92 NSCLC
MOLT-4 leukemia = test system: MOLT-4 leukemia
SF-295 CNS = test system: SF-295 CNS

CCc1c(C#N)c(SC(C(N)=O)c2ccccc2)nc(N2CCC(N)CC2)c1C#N (configuration not stated) gave a TGI (EKVX NSCLC) of 28.8 µM, a GI50 (OVCAR-8 ovarian) of 15.6 µM and a TGI (OVCAR-8 ovarian) of 29.1 µM. The GI50 (IGROV1 ovarian) was 15 µM, the TGI (IGROV1 ovarian) was 28.3 µM and the GI50 (DU-145 prostate) was 3.33 µM. It also gave a TGI (DU-145 prostate) of 12.4 µM, a GI50 (NCI-H522 lung) of 8.33 µM and a TGI (NCI-H522 lung) of 20.9 µM. For the same compound, the GI50 (CAKI-1 renal) was 13 µM, the TGI (CAKI-1 renal) was 25.8 µM and the GI50 (M14 melanoma) was 10.4 µM. For the same compound, the TGI (M14 melanoma) was 22.2 µM, the GI50 (HT29 colon) was 16.9 µM and the TGI (HT29 colon) was 30.7 µM. For the same compound, the GI50 (HL-60(TB) leukemia) was 2.29 µM, the TGI (HL-60(TB) leukemia) was 9.95 µM and the GI50 (HCT-15 colon) was 17.3 µM. The TGI (HCT-15 colon) was 31.3 µM, the GI50 (SK-MEL-28 melanoma) was 7.46 µM and the TGI (SK-MEL-28 melanoma) was 20.1 µM. The GI50 (SNB-75 CNS) was 14.9 µM, the TGI (SNB-75 CNS) was 28.2 µM and the GI50 (786-0 renal) was 11.7 µM. For the same compound, the TGI (786-0 renal) was 24 µM, the GI50 (NCI-H226 lung) was 12.4 µM and the TGI (NCI-H226 lung) was 25 µM. For the same compound, the GI50 (BT-549 breast) was 10.3 µM, the TGI (BT-549 breast) was 22.1 µM and the GI50 (MCF7 breast) was 5.36 µM. It also gave a TGI (MCF7 breast) of 17.7 µM, a GI50 (HOP-62 NSCLC) of 4.92 µM and a TGI (HOP-62 NSCLC) of 16.3 µM. The GI50 (HS 578T breast) was 14.4 µM, the TGI (HS 578T breast) was 27.6 µM and the GI50 (OVCAR-4 ovarian) was 13.7 µM. It also gave a TGI (OVCAR-4 ovarian) of 26.6 µM, a GI50 (MDA-MB-435 melanoma) of 16.8 µM and a TGI (MDA-MB-435 melanoma) of 30.5 µM. For the same compound, the GI50 (MDA-MB-468 breast) was 8.13 µM, the TGI (MDA-MB-468 breast) was 20.4 µM and the GI50 (HOP-92 NSCLC) was 13 µM. It also gave a TGI (HOP-92 NSCLC) of 25.7 µM, a GI50 (MOLT-4 leukemia) of 4.95 µM and a TGI (MOLT-4 leukemia) of 15.4 µM. The GI50 (SF-295 CNS) was 13.2 µM and the TGI (SF-295 CNS) was 26 µM.
